Reference: US8383642B2, “Spiropiperidine compounds” (Eli Lilly and Company, priority 2009, dated 2013)

What was measured:
[1] = tested on: pancreatic islets; assay: GDIS assay, primary rodent pancreatic islets of Langerhans; assay type: cell-based; conditions: different concentrations; compared to 11.2 mM glucose alone; 90 minutes; SD rat islets
Description: Because activation of GPR40 is known to result in insulin secretion which is dependent on high glucose concentrations, two separate assay systems (insulinoma cell line and primary rodent islets) are developed to further characterize compounds that are known to increase intracellular calcium in the GPR40 primary assay discussed above.
GDIS assays using primary rodent pancreatic islets of Langerhans are also used to characterize exemplified compounds. Pancreatic islets are isolated from male SD (Sprague Dawley) rats by collagenase digestion and Histopaque density gradient separation. The islets are cultured overnight in RPMI-1640 medium with GlutaMAXn (stabilized, dipeptide form of L-glutamine (Invitrogen catalog #61870-010)) to facilitate recovery from the isolation process. Insulin secretion is determined by a 90 minute incubation in EBSS (Earle's Balances Salt Solution) buffer in a 48-well plate. Briefly, islets are first preincubated in EBSS with 2.8 mM glucose for 30 min and are then transferred to a 48-well plate (four islets/well) containing 150 μl 2.8 mM glucose and incubated with 150 μl of EBSS with 2.8 or 11.2 mM glucose in the presence or absence of test compounds for 90 minutes. The buffer is removed from the wells at the end of the incubation and assayed for insulin levels using the Rat Insulin ELISA kit (Mercodia). […]

[2] = target: T1, PPARα (Homo sapiens, UniProt Q07869); assay: PPARα binding assay (SPA); conditions: concentrations up to 10 μM
T1 construct: made in house; host or cells: HEK293 (cell lysates)
T1 sequence (Q07869 1-468): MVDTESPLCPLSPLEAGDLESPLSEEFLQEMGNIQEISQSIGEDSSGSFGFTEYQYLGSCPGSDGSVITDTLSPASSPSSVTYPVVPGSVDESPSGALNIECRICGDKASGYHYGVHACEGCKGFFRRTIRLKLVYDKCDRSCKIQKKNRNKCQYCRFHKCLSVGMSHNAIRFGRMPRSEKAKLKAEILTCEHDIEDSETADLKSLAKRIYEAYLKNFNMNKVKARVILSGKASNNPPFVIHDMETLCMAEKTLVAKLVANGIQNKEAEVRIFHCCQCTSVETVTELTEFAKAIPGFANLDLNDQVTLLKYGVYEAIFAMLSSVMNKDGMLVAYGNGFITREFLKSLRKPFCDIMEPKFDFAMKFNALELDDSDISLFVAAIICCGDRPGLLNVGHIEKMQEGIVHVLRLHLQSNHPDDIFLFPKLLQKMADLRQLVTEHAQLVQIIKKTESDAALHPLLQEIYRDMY
T1 sequence (P19793 1-462 partner): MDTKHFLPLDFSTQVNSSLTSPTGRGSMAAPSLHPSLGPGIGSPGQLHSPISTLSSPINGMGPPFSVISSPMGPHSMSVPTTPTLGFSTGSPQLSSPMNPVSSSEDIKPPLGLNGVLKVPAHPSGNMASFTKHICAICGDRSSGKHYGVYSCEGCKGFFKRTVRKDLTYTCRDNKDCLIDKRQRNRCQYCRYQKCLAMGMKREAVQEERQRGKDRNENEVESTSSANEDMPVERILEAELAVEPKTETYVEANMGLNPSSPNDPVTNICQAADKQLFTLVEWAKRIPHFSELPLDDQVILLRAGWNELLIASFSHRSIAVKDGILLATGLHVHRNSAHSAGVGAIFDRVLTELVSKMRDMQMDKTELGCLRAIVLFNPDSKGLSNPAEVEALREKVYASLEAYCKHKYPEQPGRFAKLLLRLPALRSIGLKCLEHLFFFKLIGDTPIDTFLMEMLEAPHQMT
Protocol: Because GPR40 is known to be activated by ligands to PPARγ exemplified compounds are examined in PPARα, PPARδ, and PPARγ binding and functional assays to determine the selectivity of exemplified compounds for GPR40. Compounds exemplified herein are tested essentially as described below for PPAR binding and generally have binding values greater than 1000 nM with 10 μM concentrations of test compound and are thus considered negative for PPAR activity.
Binding affinities of compounds for the PPAR α, δ, and γ receptors are assessed using Scintillation Proximity Assay (SPA) technology. Biotinylated oligonucleotide Direct Repeat 2 (DR2) is used for binding the receptors to Yttrium silicate streptavidin-coated SPA beads. […] Non-specific binding is determined in the presence of 10,000 nM of the unlabeled PPAR α/δ dual agonist reference compound for the alpha and delta receptor assays and the PPARγ agonist reference compound for the gamma receptor assay. The binding reaction (100 μl per well in a 96 well [Costar 3632] plate) is incubated for 10 h and counted disintegration per minutes (dpm) on a Wallac Microbeta. Receptor binding affinity (IC50) for the compounds is determined by fitting an 11 point concentration-response curve with a 4-parameter logistic equation. Ki, is determined from the IC50 using the Cheng-Prussoff equation and Kd determined by saturation binding. […]

binding detected [2]: no binding is detected
SMILES: CC#C[C@@H](CC(=O)O)c1ccc(OCc2ccc(CN3CCC4(C=Cc5ccccc54)CC3)cc2)cc1 [Example 1, (3S)-3-(4-{[4-(1′H-Spiro[indene-1,4′-piperidin]-1′-ylmethyl)benzyl]oxy}phenyl)hex-4-ynoic acid]
increase in insulin [1]: 2- to 4 fold
